Series [1] in a line: refractive index (Na D-line) (dimensionless). Conditions: 298.15 K; 101.33 kPa; Liquid; Standard Abbe refractometry.
For series [2] the following is noted: 298.15 K; 101.33 kPa; Liquid; Pycnometric method.

± gives the expanded uncertainty stated by the source.

Drawing on the NIST ThermoML archive (doi:10.1016/j.jct.2008.10.010), this text covers refractive index and mass density for 1 compound.

In general, refractive index refers to the speed of light in vacuum divided by its phase velocity in the sample. Broadly, the mass density is the mass of a sample divided by its volume.

Take `CCCCCCC` [heptane]: the refractive index in series [1] turned out to be 1.3852 ± 0.0008. For the same compound, in series [2], the mass density came out at 679.53 ± 0.65 kg/m3.
